Test results: BindingDB's records for doi:10.1021/cb300729y (University of Dundee, 2013)

Columns and labels:
[1] = molecular target: MAP kinase-activated protein kinase 3 (Homo sapiens, UniProt Q16644); experiment: Kinase Assay
Procedure: (§1) Selected compounds were screened against a panel of mammalian kinases. Compounds were supplied in DMSO and screened in duplicates at 100 uM concentration using a radioactive (33P-ATP) filter-binding-assay.

[2] = molecular target: Proto-oncogene tyrosine-protein kinase Src (Gallus gallus, UniProt P00523); experiment: Kinase Assay
Procedure: as §1

[3] = molecular target: Ribosomal protein S6 kinase alpha-3 (Homo sapiens, UniProt P51812); experiment: Kinase Assay
Procedure: as §1

SRSF protein kinase 1 = SRSF protein kinase 1 (Homo sapiens, UniProt Q96SB4); experiment: Kinase Assay
Procedure: as §1

[4] = molecular target: Casein kinase II subunit alpha (Homo sapiens, UniProt P68400); experiment: Kinase Assay
Procedure: as §1

[5] = molecular target: Germinal center kinase MAP4K2 (Homo sapiens); experiment: Selected compounds were screened against a panel of mammalian kinases. Compounds were supplied in DMSO and screened in duplicates at 100 uM concentration using a radioactive (33P-ATP) filter-binding-assay.
[6] = molecular target: T1, Mitogen-activated protein kinase kinase kinase 7 (Homo sapiens, UniProt O43318); experiment: Kinase Assay
T1 sequence (O43318 whole entry): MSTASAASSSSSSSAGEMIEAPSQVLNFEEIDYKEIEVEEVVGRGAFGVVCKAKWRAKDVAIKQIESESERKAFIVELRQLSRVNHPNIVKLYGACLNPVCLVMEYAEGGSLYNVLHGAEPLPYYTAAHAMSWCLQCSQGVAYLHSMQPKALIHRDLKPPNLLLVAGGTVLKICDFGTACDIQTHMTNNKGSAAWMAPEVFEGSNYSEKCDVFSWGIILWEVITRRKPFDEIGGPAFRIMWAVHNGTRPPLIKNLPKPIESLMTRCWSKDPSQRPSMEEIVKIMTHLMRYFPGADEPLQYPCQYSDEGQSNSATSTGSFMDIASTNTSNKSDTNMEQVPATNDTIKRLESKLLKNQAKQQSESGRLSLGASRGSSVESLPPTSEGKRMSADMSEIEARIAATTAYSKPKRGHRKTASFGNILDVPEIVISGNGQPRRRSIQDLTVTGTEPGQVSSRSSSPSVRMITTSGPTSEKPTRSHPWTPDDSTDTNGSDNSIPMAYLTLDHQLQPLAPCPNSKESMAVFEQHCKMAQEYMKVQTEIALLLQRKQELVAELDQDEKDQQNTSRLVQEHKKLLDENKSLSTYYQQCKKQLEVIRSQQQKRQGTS
Procedure: as §1

Aurora kinase A = molecular target: T2, Aurora kinase A (Homo sapiens, UniProt O14965); experiment: Kinase Assay
T2 sequence (O14965 whole entry): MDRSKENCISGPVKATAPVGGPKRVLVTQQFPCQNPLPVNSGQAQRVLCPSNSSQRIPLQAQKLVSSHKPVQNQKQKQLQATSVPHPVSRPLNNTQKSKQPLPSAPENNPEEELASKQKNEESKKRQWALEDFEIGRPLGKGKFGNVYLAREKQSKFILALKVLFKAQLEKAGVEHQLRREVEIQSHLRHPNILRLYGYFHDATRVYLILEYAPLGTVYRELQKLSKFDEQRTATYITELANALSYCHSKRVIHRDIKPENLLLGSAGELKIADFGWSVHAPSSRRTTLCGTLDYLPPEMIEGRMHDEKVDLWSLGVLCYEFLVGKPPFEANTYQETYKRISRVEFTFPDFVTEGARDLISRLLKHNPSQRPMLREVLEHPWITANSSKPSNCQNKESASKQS
Procedure: as §1

[7] = molecular target: Dual specificity protein kinase CLK2 (Homo sapiens, UniProt P49760); experiment: Kinase Assay
Procedure: as §1

[8] = molecular target: Fibroblast growth factor receptor 1 (Homo sapiens, UniProt P11362); experiment: Kinase Assay
Procedure: as §1

[9] = molecular target: Cyclin-dependent kinase 2 (Homo sapiens, UniProt P24941); experiment: Kinase Assay
Procedure: as §1

[10] = molecular target: Insulin-like growth factor 1 receptor (Homo sapiens, UniProt P08069); experiment: Kinase Assay
Procedure: as §1

[11] = molecular target: Vascular endothelial growth factor receptor 2 (Homo sapiens, UniProt P35968); experiment: Kinase Assay
Procedure: as §1

[12] = molecular target: Tyrosine-protein kinase Yes (Homo sapiens, UniProt P07947); experiment: Kinase Assay
Procedure: as §1

[13] = molecular target: Serine/threonine-protein kinase Chk2 (Homo sapiens, UniProt O96017); experiment: Kinase Assay
Procedure: as §1

[14] = molecular target: T3, Serine/threonine-protein kinase Sgk1 (Homo sapiens, UniProt O00141); experiment: Kinase Assay
T3 sequence (O00141 whole entry): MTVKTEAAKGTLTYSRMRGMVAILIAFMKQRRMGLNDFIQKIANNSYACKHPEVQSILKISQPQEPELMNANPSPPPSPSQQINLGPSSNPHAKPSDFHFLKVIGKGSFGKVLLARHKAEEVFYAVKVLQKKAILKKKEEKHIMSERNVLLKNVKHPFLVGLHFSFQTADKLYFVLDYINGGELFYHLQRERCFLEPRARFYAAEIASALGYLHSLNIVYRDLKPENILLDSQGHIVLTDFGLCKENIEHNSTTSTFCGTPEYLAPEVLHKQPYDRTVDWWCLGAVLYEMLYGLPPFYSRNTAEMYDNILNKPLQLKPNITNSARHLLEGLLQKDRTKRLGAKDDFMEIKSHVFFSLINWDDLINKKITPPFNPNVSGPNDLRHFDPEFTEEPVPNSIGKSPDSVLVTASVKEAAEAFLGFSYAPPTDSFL
Procedure: as §1

[15] = molecular target: Glycogen synthase kinase-3 beta (Homo sapiens, UniProt P49841); experiment: Kinase Assay
Procedure: as §1

Ephrin type-B receptor 3 = molecular target: T4, Ephrin type-B receptor 3 (Homo sapiens, UniProt P54753); experiment: Kinase Assay
T4 sequence (P54753 whole entry): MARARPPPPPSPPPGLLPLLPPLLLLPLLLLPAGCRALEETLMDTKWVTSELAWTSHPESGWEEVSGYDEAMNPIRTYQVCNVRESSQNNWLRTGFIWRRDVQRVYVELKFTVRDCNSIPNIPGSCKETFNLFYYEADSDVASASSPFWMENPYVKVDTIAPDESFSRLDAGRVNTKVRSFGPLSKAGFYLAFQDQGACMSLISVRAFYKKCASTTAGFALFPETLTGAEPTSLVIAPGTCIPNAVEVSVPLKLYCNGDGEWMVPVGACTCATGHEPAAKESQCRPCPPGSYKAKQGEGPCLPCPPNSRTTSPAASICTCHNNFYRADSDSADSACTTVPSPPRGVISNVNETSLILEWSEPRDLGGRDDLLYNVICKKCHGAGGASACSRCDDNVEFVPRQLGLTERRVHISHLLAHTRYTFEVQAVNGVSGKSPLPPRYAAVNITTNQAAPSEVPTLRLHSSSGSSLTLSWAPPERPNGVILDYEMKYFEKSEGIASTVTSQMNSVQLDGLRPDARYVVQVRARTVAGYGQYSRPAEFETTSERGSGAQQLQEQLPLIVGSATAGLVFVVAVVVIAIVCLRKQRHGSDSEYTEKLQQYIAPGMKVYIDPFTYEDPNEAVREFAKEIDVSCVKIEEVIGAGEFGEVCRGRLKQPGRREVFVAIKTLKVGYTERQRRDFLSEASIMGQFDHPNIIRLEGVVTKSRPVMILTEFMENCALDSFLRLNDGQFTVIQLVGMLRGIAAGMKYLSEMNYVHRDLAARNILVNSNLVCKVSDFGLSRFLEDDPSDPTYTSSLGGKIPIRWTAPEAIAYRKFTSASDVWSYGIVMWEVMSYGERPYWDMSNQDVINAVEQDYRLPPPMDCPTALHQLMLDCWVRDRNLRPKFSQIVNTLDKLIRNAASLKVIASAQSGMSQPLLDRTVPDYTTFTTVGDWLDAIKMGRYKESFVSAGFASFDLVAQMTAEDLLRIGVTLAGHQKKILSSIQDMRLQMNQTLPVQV
Procedure: as §1

[16] = molecular target: Serine/threonine-protein kinase pim-3 (Homo sapiens, UniProt Q86V86); experiment: Kinase Assay
Procedure: as §1

[17] = molecular target: Serine/threonine-protein kinase pim-1 (Homo sapiens, UniProt P11309); experiment: Kinase Assay
Procedure: as §1

Sequence of Insulin-like growth factor 1 receptor (P08069 31-736 limits assumed): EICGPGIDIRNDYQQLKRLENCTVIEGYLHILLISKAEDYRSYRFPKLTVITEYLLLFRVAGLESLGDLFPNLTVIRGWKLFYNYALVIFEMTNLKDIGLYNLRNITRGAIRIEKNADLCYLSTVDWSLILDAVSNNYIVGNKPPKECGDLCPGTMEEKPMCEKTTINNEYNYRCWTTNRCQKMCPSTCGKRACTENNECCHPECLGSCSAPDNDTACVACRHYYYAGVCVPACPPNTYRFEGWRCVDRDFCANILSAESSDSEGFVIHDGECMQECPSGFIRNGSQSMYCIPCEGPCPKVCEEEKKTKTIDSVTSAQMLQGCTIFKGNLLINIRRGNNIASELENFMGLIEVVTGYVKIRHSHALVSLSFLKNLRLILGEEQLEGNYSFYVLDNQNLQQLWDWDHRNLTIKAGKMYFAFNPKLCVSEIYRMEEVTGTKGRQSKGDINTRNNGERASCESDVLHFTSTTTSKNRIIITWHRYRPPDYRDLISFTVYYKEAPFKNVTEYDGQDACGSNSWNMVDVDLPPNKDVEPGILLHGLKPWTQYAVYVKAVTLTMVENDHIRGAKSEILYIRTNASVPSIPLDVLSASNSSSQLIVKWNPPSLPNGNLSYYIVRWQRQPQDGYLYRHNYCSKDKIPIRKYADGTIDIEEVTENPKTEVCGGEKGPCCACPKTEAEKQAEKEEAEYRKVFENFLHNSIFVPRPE
Sequence of Insulin-like growth factor 1 receptor (P08069 741-1367 limits assumed): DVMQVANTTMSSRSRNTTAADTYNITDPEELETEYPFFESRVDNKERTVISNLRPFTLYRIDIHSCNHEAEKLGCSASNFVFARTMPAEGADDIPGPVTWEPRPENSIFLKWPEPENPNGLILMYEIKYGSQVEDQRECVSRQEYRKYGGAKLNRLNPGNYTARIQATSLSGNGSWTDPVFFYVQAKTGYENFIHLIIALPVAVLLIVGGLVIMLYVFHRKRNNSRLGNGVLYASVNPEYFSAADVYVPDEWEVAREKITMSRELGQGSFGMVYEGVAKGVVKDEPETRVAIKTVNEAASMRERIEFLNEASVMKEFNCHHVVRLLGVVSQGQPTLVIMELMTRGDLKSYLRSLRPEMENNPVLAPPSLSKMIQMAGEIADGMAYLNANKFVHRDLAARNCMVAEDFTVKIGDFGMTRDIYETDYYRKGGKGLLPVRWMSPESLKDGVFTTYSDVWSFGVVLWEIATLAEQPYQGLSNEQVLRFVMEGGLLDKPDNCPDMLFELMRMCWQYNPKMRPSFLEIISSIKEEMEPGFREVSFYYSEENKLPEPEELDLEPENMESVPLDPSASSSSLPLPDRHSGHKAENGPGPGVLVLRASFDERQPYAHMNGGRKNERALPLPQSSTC
Sequence of Fibroblast growth factor receptor 1 (P11362 whole entry): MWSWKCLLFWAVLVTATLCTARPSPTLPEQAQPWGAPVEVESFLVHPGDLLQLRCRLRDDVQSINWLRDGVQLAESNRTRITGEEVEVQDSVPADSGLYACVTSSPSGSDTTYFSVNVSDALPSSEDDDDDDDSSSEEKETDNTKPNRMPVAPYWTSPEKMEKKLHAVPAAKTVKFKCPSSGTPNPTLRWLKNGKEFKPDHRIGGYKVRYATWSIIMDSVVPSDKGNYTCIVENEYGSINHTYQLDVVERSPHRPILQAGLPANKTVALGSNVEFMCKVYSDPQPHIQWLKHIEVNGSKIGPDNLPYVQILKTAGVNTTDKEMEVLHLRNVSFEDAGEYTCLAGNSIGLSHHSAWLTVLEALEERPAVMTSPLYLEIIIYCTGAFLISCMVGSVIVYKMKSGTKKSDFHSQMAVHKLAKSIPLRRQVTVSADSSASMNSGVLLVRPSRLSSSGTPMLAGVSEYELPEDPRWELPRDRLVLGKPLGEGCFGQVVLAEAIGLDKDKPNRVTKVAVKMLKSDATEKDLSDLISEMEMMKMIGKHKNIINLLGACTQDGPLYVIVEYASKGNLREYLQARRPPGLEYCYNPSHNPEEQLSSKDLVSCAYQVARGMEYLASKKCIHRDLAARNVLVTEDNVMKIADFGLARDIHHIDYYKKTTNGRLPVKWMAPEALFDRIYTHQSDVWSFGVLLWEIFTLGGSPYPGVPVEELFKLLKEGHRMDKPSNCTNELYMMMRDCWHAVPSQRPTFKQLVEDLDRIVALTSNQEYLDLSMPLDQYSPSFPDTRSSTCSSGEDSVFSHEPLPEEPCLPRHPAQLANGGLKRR
Sequence of Casein kinase II subunit alpha (P68400 whole entry): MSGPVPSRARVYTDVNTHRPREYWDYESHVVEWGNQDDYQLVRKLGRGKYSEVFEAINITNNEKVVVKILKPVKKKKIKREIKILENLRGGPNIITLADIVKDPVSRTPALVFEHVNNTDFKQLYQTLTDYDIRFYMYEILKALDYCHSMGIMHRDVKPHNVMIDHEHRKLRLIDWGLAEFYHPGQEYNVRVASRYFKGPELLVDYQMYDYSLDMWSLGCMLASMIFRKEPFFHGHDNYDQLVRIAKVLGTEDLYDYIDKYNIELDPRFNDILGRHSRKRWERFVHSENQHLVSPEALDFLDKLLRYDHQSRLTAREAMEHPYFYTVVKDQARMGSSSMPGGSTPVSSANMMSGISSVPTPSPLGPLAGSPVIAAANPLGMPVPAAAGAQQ
Sequence of Tyrosine-protein kinase Yes (P07947 whole entry): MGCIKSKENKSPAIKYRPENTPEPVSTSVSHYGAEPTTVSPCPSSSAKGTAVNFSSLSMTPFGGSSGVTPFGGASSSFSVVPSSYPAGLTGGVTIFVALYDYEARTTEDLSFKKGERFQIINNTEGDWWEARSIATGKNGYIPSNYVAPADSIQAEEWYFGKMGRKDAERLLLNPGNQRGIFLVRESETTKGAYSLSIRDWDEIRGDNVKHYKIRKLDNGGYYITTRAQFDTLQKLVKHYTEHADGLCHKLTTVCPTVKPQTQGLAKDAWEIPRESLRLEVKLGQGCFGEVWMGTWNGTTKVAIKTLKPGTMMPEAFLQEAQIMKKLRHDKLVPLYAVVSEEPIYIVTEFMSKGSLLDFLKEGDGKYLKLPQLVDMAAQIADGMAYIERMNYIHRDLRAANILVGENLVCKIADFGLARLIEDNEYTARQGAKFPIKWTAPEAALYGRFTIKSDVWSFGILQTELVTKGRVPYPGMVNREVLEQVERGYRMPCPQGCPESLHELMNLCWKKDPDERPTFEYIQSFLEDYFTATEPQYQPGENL
Sequence of Ribosomal protein S6 kinase alpha-3 (P51812 whole entry): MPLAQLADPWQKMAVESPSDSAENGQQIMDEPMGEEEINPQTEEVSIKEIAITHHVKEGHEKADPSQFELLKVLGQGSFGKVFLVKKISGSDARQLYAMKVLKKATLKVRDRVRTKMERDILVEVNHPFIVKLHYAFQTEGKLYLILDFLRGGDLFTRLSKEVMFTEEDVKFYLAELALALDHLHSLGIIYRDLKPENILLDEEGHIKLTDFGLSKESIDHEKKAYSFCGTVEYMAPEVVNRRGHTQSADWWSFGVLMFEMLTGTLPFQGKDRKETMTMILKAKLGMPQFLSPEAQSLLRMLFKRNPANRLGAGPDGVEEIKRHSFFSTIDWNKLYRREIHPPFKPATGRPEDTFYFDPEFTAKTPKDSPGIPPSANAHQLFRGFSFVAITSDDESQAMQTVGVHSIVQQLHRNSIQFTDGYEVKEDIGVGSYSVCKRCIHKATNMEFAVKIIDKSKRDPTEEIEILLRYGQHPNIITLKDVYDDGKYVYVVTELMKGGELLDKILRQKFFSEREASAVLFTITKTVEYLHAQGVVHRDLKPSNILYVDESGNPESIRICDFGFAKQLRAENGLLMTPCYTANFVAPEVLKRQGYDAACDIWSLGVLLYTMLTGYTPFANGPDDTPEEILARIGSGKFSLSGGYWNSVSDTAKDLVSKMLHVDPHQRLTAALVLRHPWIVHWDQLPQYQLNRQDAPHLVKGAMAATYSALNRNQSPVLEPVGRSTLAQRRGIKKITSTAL
Sequence of Glycogen synthase kinase-3 beta (P49841 whole entry): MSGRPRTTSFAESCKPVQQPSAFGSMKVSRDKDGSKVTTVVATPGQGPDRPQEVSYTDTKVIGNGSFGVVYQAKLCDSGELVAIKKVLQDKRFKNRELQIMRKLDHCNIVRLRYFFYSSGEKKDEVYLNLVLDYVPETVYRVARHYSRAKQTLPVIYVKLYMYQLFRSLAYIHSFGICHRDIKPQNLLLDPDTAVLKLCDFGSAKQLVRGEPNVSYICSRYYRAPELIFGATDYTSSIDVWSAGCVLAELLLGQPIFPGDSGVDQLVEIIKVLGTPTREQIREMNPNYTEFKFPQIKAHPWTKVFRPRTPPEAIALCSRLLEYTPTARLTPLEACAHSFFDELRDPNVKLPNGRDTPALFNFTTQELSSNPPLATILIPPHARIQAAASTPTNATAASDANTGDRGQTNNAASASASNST
Sequence of Serine/threonine-protein kinase pim-1 (P11309 whole entry): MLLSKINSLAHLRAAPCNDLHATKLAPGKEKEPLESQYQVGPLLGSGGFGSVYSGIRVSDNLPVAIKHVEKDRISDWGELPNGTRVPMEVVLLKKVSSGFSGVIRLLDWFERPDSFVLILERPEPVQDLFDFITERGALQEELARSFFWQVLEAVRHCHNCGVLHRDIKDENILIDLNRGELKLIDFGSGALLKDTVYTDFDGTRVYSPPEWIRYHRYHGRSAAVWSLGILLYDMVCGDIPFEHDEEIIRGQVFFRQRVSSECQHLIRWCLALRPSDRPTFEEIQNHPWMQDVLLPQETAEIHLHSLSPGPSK

Compound: CC1CN(c2nc3ccccn3c(=O)c2N)CC(C)O1 (stereo unspecified) [Kinase inhibitor, A1]
- IC50 [1]: 21 µM
- IC50 [2]: 97 µM
- IC50 [3]: 196 µM
- IC50 (SRSF protein kinase 1): 114 µM
- IC50 [4]: 18 µM

Compound: Nc1cnc2c(-c3c(F)cccc3F)cccn2c1=O [Kinase inhibitor, A2]
- IC50 [5]: 4 µM
- IC50 [6]: 24 µM
- IC50 (Aurora kinase A): 188 µM
- IC50 [7]: 25 µM
- IC50 [8]: 252 µM
- IC50 [9]: 26 µM
- IC50 [10]: 47 µM
- IC50 [4]: 131 µM

Compound: Nc1nc2cnc(-c3ccccc3)cn2n1 [Kinase inhibitor, B1]
- IC50 [5]: 6 µM
- IC50 [6]: 11 µM
- IC50 [2]: 20 µM
- IC50 [11]: 39 µM
- IC50 [12]: 21 µM
- IC50 [13]: 17 µM
- IC50 [10]: 25 µM

Compound: COc1ccc(-c2cc3c(=O)[nH]cnc3s2)cc1OC [Kinase inhibitor, C2]
- IC50 [14]: 110 µM
- IC50 [15]: 25 µM

Compound: CC(C)(C)Nc1c(C2CC2)[nH]c2ncnn12 [Kinase inhibitor, D1]
- IC50 (Ephrin type-B receptor 3): 158 µM
- IC50 [8]: 469 µM

Compound: O=c1cc(-c2ccccc2F)nc2[nH]ccn12 [Kinase inhibitor, F3]
- IC50 [16]: 14 µM
- IC50 [17]: 22 µM
